In patent US6841661B2, “Glycopeptide antibacterial compounds, compositions containing same and methods of using same” (Princeton Univerisity, priority 1999, dated 2005):

Tests used:
[1] = test system: E. faecium CL 5242 (VanA); assay: microbe, parasite or virus in culture; format: cell-based; design: CL5242 (in vitro testing): unit not given here; details: Tables 7 and 8; unit not given
From the text: (§1) National Committee for Clinical Laboratory Standards (NCCLS) guidelines [Methods for Dilution Antimicrobial Susceptibility Tests for Bacteria that Grow Aerobically-Fourth Edition; Approved Standard (NCCLS Document M7-A4, January 1997)] are used to establish the assay, although variations are made to optimize the published method according to the specific needs of the present investigation.
(§2) The test panel currently includes eight enterococci and 13 staphylococci, which are selected based upon their antibiotic susceptibility profiles. The methicillin-sensitive Staphylococcus aureus (MSSA) strain MB2985 (Smith isolate) is used to assesses the potential for serum protein binding of the compounds. The paired Gram-negative strains ASP #49 (envA-) and ASP #50 (envA+) (M. Salvatore/N. Lee) are included to judge membrane effects. Table 3 presents a detailed description of the strains included in the panel, including some of the sources of the strains of bacteria.
(§3) The glycopeptide antibiotic teicoplanin is included whenever possible.
(§4) TSB, containing 10% HS* for vancomycin intermediate S. aurcus/methicillin-resistant S. aureus (VISA/MRSA) strains, is inoculated from an appropriate source (frozen broth or agar slant) and grown approximately 17 hr at 35° C. with shaking at 220 rpm. Cultures are grown in tubes with a volume of 5 ml for enterococci and 2 ml for all other strains.
(§5) Four milliliter (4 ml) overnight culture is added to 36 ml physiological saline to obtain tenfold dilutions (enterococci). Overnight culture (0.4 ml) is added to 39.6 ml saline to obtain 100-fold dilutions (all strains except enterococci). Diluted cultures are maintained on ice until time of inoculation of test plates.
(§6) The number of CFU/mL is determined on BHI agar plates, although this is not done routinely because titers of overnight cultures are relatively constant. The test media include: • BHI for enterococci and VISA/MRSA; • MH II (i.e., cation-adjusted Mueller-Hinton broth) for MRS, MSS and E. coli.; • MH II+HSA for MSSA is prepared as follows: • a. 2×MHII+86mg/ml HSA • b. Dissolve 4.3 g HSA in 50 ml autoclaved 2x MH II. • c. pH to 7.0 by adding 2M MOPS, sodium. • d. Filter sterilize using 0.22 μm Coming cellulose acetate filter, used because of reported low protein binding. • e. 1×MH II+43 mg/ml HSA • f. Dilute the 2×medium twofold and filter as above. 5.8.6. Preparation of Test Plates
(§7) Using a Denley liquid handling system (or similar automatic device), 100 μ1×medium is added to each well in columns 2-12 of a 96-well microtiter dish. Using a multichannel pipettor, 100 μl 2×medium is added to each well in column 1. Plates may be filled on the day prior to assay, wrapped in plastic bags and refrigerated.
(§8) Vancomycin, Schering 29482, and teicoplanin are prepared on a weight per volume basis using 10 mM 3-(N-morpholino)propane-sulfonic acid (MOPS) buffer pH 7. Test compounds are received in solution in appropriate solvent (typically as 1 mg/ml in DMSO) or are dissolved in appropriate solvent prior to further dilution in 10 mM MOPS buffer, ph7. Consistent with NCCLS guidelines, antibiotics are handled aseptically but are not otherwise sterilized.
(§9) 100 μl appropriately diluted antibiotic solution is added to the first well of the designated row of the 96-well microtiter dish and serially diluted by twofold across the row using the Denley liquid handling system. With the aid of a Dynatech NEC 2000 inoculator, each well of the microtiter dish is inoculated with 1.5 μl diluted overnight culture, yielding approximately 1-5×10^6 CFU/ml for enterococci and approximately 3-7×10^5 CFU/ml for all other strains. Dishes are placed in stacks of no more than five, wrapped in plastic bags and incubated at 35° C. • Indication of result(s) type (% INH, IC50, Zone size, etc.) • MIC=minimum inhibitory concentration ps 5.8.9. Interpretation of the Results on the Basis of Activity […]

[2] = test system: CL 4931, CL 5053, CL 5242 and CL 4877; format: cell-based, E. faecium, E. faecalis; design: unit not given here; details: mean of CL4931, CL5053, CL5242, CL4877; unit not given
From the text: as §1, §2, §3, §4, §5, §6, §7, §8, §9

[3] = test system: E. faecalis CL 4877 (VanB); assay: microbe, parasite or virus in culture; format: cell-based; design: CL4877 (in vitro testing): unit not given here; details: Tables 7 and 8; unit not given
From the text: as §1, §2, §3, §4, §5, §6, §7, §8, §9

[4] = test system: E. faecium CL 5053 (VanA); assay: microbe, parasite or virus in culture; format: cell-based; design: CL5053 (in vitro testing): unit not given here; details: Tables 7 and 8; unit not given
From the text: as §1, §2, §3, §4, §5, §6, §7, §8, §9

[5] = test system: E. faecium CL 4931 (VanA); assay: microbe, parasite or virus in culture; format: cell-based; design: CL4931 (in vitro testing): unit not given here; details: Tables 7 and 8; unit not given
From the text: as §1, §2, §3, §4, §5, §6, §7, §8, §9

Row | SMILES | CL5242 (in vitro testing) [1] | Mean [2] | CL4877 (in vitro testing) [3] | CL5053 (in vitro testing) [4] | CL4931 (in vitro testing) [5]
1 | CNC(CC(C)C)C(=O)NC1C(=O)NC(CC(N)=O)C(=O)NC2C(=O)NC3C(=O)NC(C(=O)NC(C(=O)O)c4cc(O)cc(O)c4-c4cc3ccc4O)C(O)c3ccc(c(Cl)c3)Oc3cc2cc(c3OC2OC(CNCc3ccc(N)cc3)C(O)C(O)C2OC2CC(C)(NCc3ccc(OCc4ccc(Cl)c(Cl)c4)cc3)C(O)C(C)O2)Oc2ccc(cc2Cl)C1O (centres unmarked) [Compound 133] | 0.5 | 1.1 | 0.03 | 2 | 2
2 | CNC(CC(C)C)C(=O)NC1C(=O)NC(CC(N)=O)C(=O)NC2C(=O)NC3C(=O)NC(C(=O)NC(C(=O)O)c4cc(O)cc(O)c4-c4cc3ccc4O)C(O)c3ccc(c(Cl)c3)Oc3cc2cc(c3OC2OC(CNCc3ccccc3)C(O)C(O)C2OC2CC(C)(NCc3ccc(OCc4ccc(Cl)c(Cl)c4)cc3)C(O)C(C)O2)Oc2ccc(cc2Cl)C1O (centres unmarked) [Compound 134] | 1 | 1.8 | 0.25 | 4 | 2
3 | CNC(CC(C)C)C(=O)NC1C(=O)NC(CC(N)=O)C(=O)NC2C(=O)NC3C(=O)NC(C(=O)NC(C(=O)O)c4cc(O)cc(O)c4-c4cc3ccc4O)C(O)c3ccc(c(Cl)c3)Oc3cc2cc(c3OC2OC(CNCCc3ccc(N)cc3)C(O)C(O)C2OC2CC(C)(NCc3ccc(OCc4ccc(Cl)c(Cl)c4)cc3)C(O)C(C)O2)Oc2ccc(cc2Cl)C1O (centres unmarked) [Compound 135] | 1 | 2.3 | 0.06 | 4 | 4
4 | CNC(CC(C)C)C(=O)NC1C(=O)NC(CC(N)=O)C(=O)NC2C(=O)NC3C(=O)NC(C(=O)NC(C(=O)O)c4cc(O)cc(O)c4-c4cc3ccc4O)C(O)c3ccc(c(Cl)c3)Oc3cc2cc(c3OC2OC(CNCc3ccc(F)cc3)C(O)C(O)C2OC2CC(C)(NCc3ccc(OCc4ccc(Cl)c(Cl)c4)cc3)C(O)C(C)O2)Oc2ccc(cc2Cl)C1O (centres unmarked) [Compound 136] | 1 | 2.3 | 0.12 | 4 | 4
5 | CNC(CC(C)C)C(=O)NC1C(=O)NC(CC(N)=O)C(=O)NC2C(=O)NC3C(=O)NC(C(=O)NC(C(=O)O)c4cc(O)cc(O)c4-c4cc3ccc4O)C(O)c3ccc(c(Cl)c3)Oc3cc2cc(c3OC2OC(CNCc3cccc(Cl)c3)C(O)C(O)C2OC2CC(C)(NCc3ccc(OCc4ccc(Cl)c(Cl)c4)cc3)C(O)C(C)O2)Oc2ccc(cc2Cl)C1O (centres unmarked) [Compound 137] | 1 | 2.3 | 0.12 | 4 | 4
6 | CNC(CC(C)C)C(=O)NC1C(=O)NC(CC(N)=O)C(=O)NC2C(=O)NC3C(=O)NC(C(=O)NC(C(=O)O)c4cc(O)cc(O)c4-c4cc3ccc4O)C(O)c3ccc(c(Cl)c3)Oc3cc2cc(c3OC2OC(CNCc3ccc(OC)cc3)C(O)C(O)C2OC2CC(C)(NCc3ccc(OCc4ccc(Cl)c(Cl)c4)cc3)C(O)C(C)O2)Oc2ccc(cc2Cl)C1O (centres unmarked) [Compound 138] | 1 | 3.4 | 0.5 | 4 | 8
7 | CNC(CC(C)C)C(=O)NC1C(=O)NC(CC(N)=O)C(=O)NC2C(=O)NC3C(=O)NC(C(=O)NC(C(=O)O)c4cc(O)cc(O)c4-c4cc3ccc4O)C(O)c3ccc(c(Cl)c3)Oc3cc2cc(c3OC2OC(CNCc3ccccc3N)C(O)C(O)C2OC2CC(C)(NCc3ccc(OCc4ccc(Cl)c(Cl)c4)cc3)C(O)C(C)O2)Oc2ccc(cc2Cl)C1O (centres unmarked) [Compound 139] | 2 | 3.6 | 0.25 | 4 | 8
8 | CNC(CC(C)C)C(=O)NC1C(=O)NC(CC(N)=O)C(=O)NC2C(=O)NC3C(=O)NC(C(=O)NC(C(=O)O)c4cc(O)cc(O)c4-c4cc3ccc4O)C(O)c3ccc(c(Cl)c3)Oc3cc2cc(c3OC2OC(CNCC3CCCCN3)C(O)C(O)C2OC2CC(C)(NCc3ccc(OCc4ccc(Cl)c(Cl)c4)cc3)C(O)C(C)O2)Oc2ccc(cc2Cl)C1O (centres unmarked) [Compound 140] | 2 | 3.6 | 0.5 | 8 | 4
9 | CNC(CC(C)C)C(=O)NC1C(=O)NC(CC(N)=O)C(=O)NC2C(=O)NC3C(=O)NC(C(=O)NC(C(=O)O)c4cc(O)cc(O)c4-c4cc3ccc4O)C(O)c3ccc(c(Cl)c3)Oc3cc2cc(c3OC2OC(CNCc3ccc(C)cc3)C(O)C(O)C2OC2CC(C)(NCc3ccc(OCc4ccc(Cl)c(Cl)c4)cc3)C(O)C(C)O2)Oc2ccc(cc2Cl)C1O (centres unmarked) [Compound 141] | 2 | 3.8 | 1 | 8 | 4
10 | CNC(CC(C)C)C(=O)NC1C(=O)NC(CC(N)=O)C(=O)NC2C(=O)NC3C(=O)NC(C(=O)NC(C(=O)O)c4cc(O)cc(O)c4-c4cc3ccc4O)C(O)c3ccc(c(Cl)c3)Oc3cc2cc(c3OC2OC(CNCC3CCCO3)C(O)C(O)C2OC2CC(C)(NCc3ccc(OCc4ccc(Cl)c(Cl)c4)cc3)C(O)C(C)O2)Oc2ccc(cc2Cl)C1O (centres unmarked) [Compound 142] | 2 | 4.0 | 2 | 8 | 4
11 | CNC(CC(C)C)C(=O)NC1C(=O)NC(CC(N)=O)C(=O)NC2C(=O)NC3C(=O)NC(C(=O)NC(C(=O)O)c4cc(O)cc(O)c4-c4cc3ccc4O)C(O)c3ccc(c(Cl)c3)Oc3cc2cc(c3OC2OC(CNCCc3ccccc3)C(O)C(O)C2OC2CC(C)(NCc3ccc(OCc4ccc(Cl)c(Cl)c4)cc3)C(O)C(C)O2)Oc2ccc(cc2Cl)C1O (centres unmarked) [Compound 143] | 2 | 4.0 | 2 | 4 | 8
12 | CNC(CC(C)C)C(=O)NC1C(=O)NC(CC(N)=O)C(=O)NC2C(=O)NC3C(=O)NC(C(=O)NC(C(=O)O)c4cc(O)cc(O)c4-c4cc3ccc4O)C(O)c3ccc(c(Cl)c3)Oc3cc2cc(c3OC2OC(CNC3CCCC3)C(O)C(O)C2OC2CC(C)(NCc3ccc(OCc4ccc(Cl)c(Cl)c4)cc3)C(O)C(C)O2)Oc2ccc(cc2Cl)C1O (centres unmarked) [Compound 144] | 2 | 4.0 | 2 | 8 | 4
13 | CNC(CC(C)C)C(=O)NC1C(=O)NC(CC(N)=O)C(=O)NC2C(=O)NC3C(=O)NC(C(=O)NC(C(=O)O)c4cc(O)cc(O)c4-c4cc3ccc4O)C(O)c3ccc(c(Cl)c3)Oc3cc2cc(c3OC2OC(CNCc3ccco3)C(O)C(O)C2OC2CC(C)(NCc3ccc(OCc4ccc(Cl)c(Cl)c4)cc3)C(O)C(C)O2)Oc2ccc(cc2Cl)C1O (centres unmarked) [Compound 145] | 1 | 4.4 | 0.5 | 8 | 8
